In general, EC50 refers to the concentration giving half of the maximal effect.

The structures appear in SMILES notation. Counter-ions that a name gives are not always drawn.

In the first assay the target is Steroidogenic factor 1 (Homo sapiens, UniProt Q13285). The experiment in a line: activation of SF-1 LBD reporter – cell-based, CHO-K1, Gal4-SF-1 LBD, luciferase luminescence, dose response (AID 692).
Chain of Steroidogenic factor 1 (Q13285 whole entry, the tested form may be a part): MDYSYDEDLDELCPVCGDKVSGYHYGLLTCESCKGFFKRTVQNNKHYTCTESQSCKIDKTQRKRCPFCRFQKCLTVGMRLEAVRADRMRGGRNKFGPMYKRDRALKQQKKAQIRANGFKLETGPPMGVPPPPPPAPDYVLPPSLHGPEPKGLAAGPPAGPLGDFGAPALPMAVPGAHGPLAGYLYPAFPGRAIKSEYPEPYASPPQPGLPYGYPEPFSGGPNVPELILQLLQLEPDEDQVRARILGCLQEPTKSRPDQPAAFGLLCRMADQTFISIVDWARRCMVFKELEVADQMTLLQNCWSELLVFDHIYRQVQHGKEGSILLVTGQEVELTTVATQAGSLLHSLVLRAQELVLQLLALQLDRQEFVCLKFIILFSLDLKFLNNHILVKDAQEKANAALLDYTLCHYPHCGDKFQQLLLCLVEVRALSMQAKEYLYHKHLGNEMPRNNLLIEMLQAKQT
Details: not given
Compound `Cc1ccc(C(=O)Nc2ncc(Cc3ccccc3)s2)o1` [5-Methyl-furan-2-carboxylic acid (5-benzyl-thiazol-2-yl)-amide] registered an EC50 of 168 nM.
In turn, `Cc1ccc(C(=O)Nc2ncc(Cc3ccc(F)cc3)s2)o1` [5-Methyl-furan-2-carboxylic acid [5-(4-fluoro-benzyl)-thiazol-2-yl]-amide] showed an EC50 of 414 nM.
With `Nc1c(C(=O)NCc2ccco2)nnn1-c1ccccc1` [5-amino-N-(2-furanylmethyl)-1-phenyl-4-triazolecarboxamide], the EC50 worked out at 2670 nM.
`CC1(C)Cc2c(sc(NC(=O)c3ccc(Br)o3)c2C#N)CO1` [5-bromanyl-N-(3-cyano-5,5-dimethyl-4,7-dihydrothieno[2,3-c]pyran-2-yl)furan-2-carboxamide]: the concentration giving a half-maximal response (EC50) is more than 407 nM.
Regarding `COc1ccc(OC)c2sc(NC(=O)c3ccc(Br)s3)nc12` [5-bromanyl-N-(4,7-dimethoxy-1,3-benzothiazol-2-yl)thiophene-2-carboxamide], the EC50 was more than 99000 nM.
The same measure, in the same setting: under `O=C(Nc1cccc(-c2nnc(-c3ccccc3)o2)c1)c1ccc(Br)o1` [5-bromanyl-N-[3-(5-phenyl-1,3,4-oxadiazol-2-yl)phenyl]furan-2-carboxamide] stands 4100 nM; under `CCc1ccc(C(=O)NCc2cccs2)s1` [5-ethyl-N-(2-thenyl)thiophene-2-carboxamide], 3230 nM.
Consider `c1ccc(-c2cnc(CSc3nnc4ccccn34)o2)cc1` [5-phenyl-2-([1,2,4]triazolo[4,3-a]pyridin-3-ylsulfanylmethyl)-1,3-oxazole], for which a half-maximal response (EC50) required 957 nM. This EC50 is about 3.4-fold lower than that of the compound before.
The same measure, in the same setting: under `COc1ccc(-c2cn3ccsc3n2)cc1` [6-(4-methoxyphenyl)imidazo[2,1-b][1,3]thiazole] stands 380 nM; under `CCOC(=O)c1cnc2c(-c3ccccc3)cnn2c1N` [7-amino-3-phenyl-6-pyrazolo[1,5-a]pyrimidinecarboxylic acid ethyl ester], 183 nM; under `COCC(C)NC(=O)c1noc2c1CCc1cc(OC)ccc1-2` (stereo unspecified) [7-methoxy-N-(1-methoxypropan-2-yl)-4,5-dihydrobenzo[g][1,2]benzoxazole-3-carboxamide], more than 1220 nM.
For the compound `CCc1nc(Nc2ccc3nccnc3c2)c2oc3ccccc3c2n1` [(2-ethylbenzofuro[3,2-d]pyrimidin-4-yl)-quinoxalin-6-yl-amine;hydrochloride], the EC50 was more than 99000 nM.
Still for that read-out and setting: under `CC(=Nc1cccc(O)c1)c1sc2ccccc2c1O` [(2Z)-2-[1-(3-hydroxyanilino)ethylidene]-1-benzothiophen-3-one] stands 4470 nM; under `COC(=O)CSc1nc2cc(C)ccc2cc1C#N` [(3-Cyano-7-methyl-quinolin-2-ylsulfanyl)-acetic acid methyl ester], 746 nM.
Consider `Cc1ccc(C2C(C(=O)c3cnn(-c4ccccc4)c3C)C(=O)C(=O)N2CCN(C)C)o1` (stereo unspecified) [(4E)-1-[2-(dimethylamino)ethyl]-4-[hydroxy-(5-methyl-1-phenyl-4-pyrazolyl)methylidene]-5-(5-methyl-2-furanyl)pyrrolidine-2,3-dione], for which a half-maximal response (EC50) required 3590 nM.
Same read-out and setting: under `CC(=NC1CCCC1)c1c(C)[nH]n(-c2nc3ccccc3s2)c1=O` [(4Z)-2-(1,3-benzothiazol-2-yl)-4-[1-(cyclopentylamino)ethylidene]-5-methylpyrazol-3-one] stands 741 nM; under `Cn1c(-c2ccc3c(c2)OCO3)cnc1NCc1ccccc1` [(5-Benzo[1,3]dioxol-5-yl-1-methyl-1H-imidazol-2-yl)-benzyl-amine], more than 11000 nM.
Still for that read-out and setting: the result for `Fc1ccc2nc(Nc3nc4c(s3)CCCC4)sc2c1` [(6-fluoro-1,3-benzothiazol-2-yl)-(4,5,6,7-tetrahydro-1,3-benzothiazol-2-yl)amine] reads 1010 nM; that for `CC(=N)C(C#N)C(=O)CSc1ccc2c(c1)OCCO2` (stereo unspecified) [(E)-3-amino-2-[2-(2,3-dihydro-1,4-benzodioxin-6-ylsulfanyl)acetyl]but-2-enenitrile], 2890 nM; that for `O=C(Nc1ccc(NC(=O)c2cccs2)cn1)c1ccco1` [Furan-2-carboxylic acid {5-[(thiophene-2-carbonyl)-amino]-pyridin-2-yl}-amide], 5540 nM.
Same read-out and setting: the result for `CC(=O)Nc1ccc(-c2cc3ccccc3o2)cc1` [MLS000036584] reads 444 nM; that for `O=C(Nc1nnc(C2CCCCC2)s1)c1ccco1` [MLS000039439], more than 1220 nM.
Regarding `CC(=O)c1c(C)[nH]c(C(=O)NCCc2cccc(C)c2)c1C` [MLS000045238], the EC50 is more than 3670 nM.
The same measure, in the same setting: under `O=C(NCC1CCCO1)c1coc2nc3ccccc3nc12` (stereo unspecified) [MLS000046703] stands more than 99000 nM; under `O=C(Nc1ccc2c(c1)OCO2)c1ccc(COc2ccc3c(c2)CCC3)o1` [MLS000048173], more than 407 nM; under `COc1ccc(CCC(=O)Nc2ccc(-c3noc(-c4ccc(OC)c(OC)c4)n3)cc2)cc1` [MLS000049572], 1180 nM.
The compound `O=C(Nc1ccc(-c2cn3ccsc3n2)cc1)C1CC1` [MLS000053249] returned an EC50 of 1190 nM. This EC50 and that of the compound before are within 1.5-fold of each other.
The same measure, in the same setting: under `COc1ccc(NC(=O)c2ccc3c(c2)OCO3)cc1Cl` [MLS000053302] stands 589 nM; under `CS(=O)(=O)c1ccc2nc(NC(=O)C3COc4ccccc4O3)sc2c1` (stereo unspecified) [MLS000056123], 7740 nM.
As for `O=C(Nc1ccc(CN2CCOCC2)cc1)c1cc2ccccc2o1` [MLS000062478], the response was half-maximal at 720 nM (EC50).
Turning to `CC(C)(C)c1cc(NC(=O)C2CCCO2)no1` (stereo unspecified) [MLS000065845], it took 2820 nM to reach a half-maximal effect (EC50).
`O=C(NCc1ccco1)c1cc2c(s1)CCCCC2` [MLS000065859]: the half-maximal effective concentration (EC50) turned out to be 3100 nM. The EC50 values of the last two compounds are within 1.5-fold of each other.
Same read-out and setting: the result for `CCOC(=O)c1cc2cc(OC)ccc2[nH]1` [MLS000071430] reads 1380 nM; that for `C=CCn1c(-c2ccccc2)c[nH]c1=S` [MLS000071728], 1220 nM.
On the same count and under the same terms, the result for `CCOc1ccc(OCC)c(NC(=O)CSc2nc3c(c(=O)n(C)c(=O)n3C)n2C(C)C)c1` [MLS000072726] reads more than 11000 nM; that for `Cc1cnc(NC(=O)CSc2nnc(-c3ccccc3)o2)s1` [MLS000077990], 1920 nM.
The compound `CCOC(=O)c1[nH]c2ccc(C)cc2c1N` [MLS000079379] had an EC50 of 544 nM. Compared with the last compound, the EC50 is about 3.5-fold lower.
`Nc1nc2c(s1)CCc1c-2cnn1-c1ccccc1` [MLS000085948] registered an EC50 of 760 nM.
In turn, `CN(C)C=Nc1ncnc2c1cnn2-c1ccc(C(F)(F)F)cn1` [MLS000087855] gave an EC50 of more than 99000 nM.
On the same count and under the same terms, the result for `CCCc1cc(C(=O)Nc2ccccc2SC)no1` [MLS000116378] reads 4430 nM; that for `CC(=O)c1cccc(NC(=O)c2cnn3ccccc23)c1` [MLS000118777], 2200 nM; that for `COc1ccccc1Nc1nc2ccccc2[nH]1` [N-(2-methoxyphenyl)-1H-benzimidazol-2-amine], 6470 nM.

The same assay, now with this note: inactive by the depositor's call.
The compound `O=C(Nc1nccs1)c1ccc(COc2ccc(F)cc2)o1` [5-[(4-fluoranylphenoxy)methyl]-N-(1,3-thiazol-2-yl)furan-2-carboxamide] showed an EC50 of 11400 nM. This counts as double-digit micromolar.
Same read-out and setting: under `CCN(CC)c1ccc(-n2cc3c(=O)n(C)c(=O)n(C)c3c2)cc1` [6-(4-Diethylamino-phenyl)-1,3-dimethyl-1,6-dihydro-pyrrolo[3,4-d]pyrimidine-2,4-dione] stands 12400 nM; under `Cc1cc(C(=O)Nc2sc3c(c2C#N)CCC(C(C)(C)C)C3)no1` (stereo unspecified) [MLS000087312], 10100 nM.
On the same count and under the same terms, the result for `CCOc1ccc(OCC)c(NC(=O)C2CCCN2S(=O)(=O)c2cccc3cccnc23)c1` (stereo unspecified) [MLS000119093] reads 12200 nM.

These data come from BindingDB's records for doi:10.7270/Q23T9FMP (The Scripps Research Institute Molecular Screening Center, 2007).
